Experiment: Tissue concentration of aprepitant by HPLC after oral or inhaled administration to rabbits
Assay type: in vivo, New Zealand albino rabbits
Details: for concentration at 7 days: New Zealand White, rabbit, lung, seven days
Procedure: Herein, New Zealand albino rabbits (New Zealand White Rabbits) with an initial average weight of approximately 3 kg were used. The rabbits were fed ad libitum and were monitored daily to check that signs of toxicity had not appeared. […] This mixture was administered as an aerosol to the airways of a group of 3 of said rabbits (Group 5) in a dose of 0.05 mg/kg body weight per day, to another group of three rabbits (Group 6) in a dose of 0.1 mg/kg body weight per day, to another group of three rabbits (group 7) in a dose of 0.2 mg/kg body weight per day and to another group of three rabbits (Group 8) in a dose of 0.4 mg/kg body weight per day. […] After seven days of treatment all animals were euthanized and necropsied. […] Samples were taken at the peripheral level of the lung parenchyma, just below the pleural surface. Tissue samples were also taken from the nasal cavity, pharynx, larynx and bronchi. […] The average is the arithmetic average calculated for each row or column of each table. The SD is the standard deviation, calculated for each row or column of each table.

`C[C@@H](OC1OCCN(Cc2nc(=O)[nH][nH]2)C1c1ccc(F)cc1)c1cc(C(F)(F)F)cc(C(F)(F)F)c1` (stereo in doubt) [Aprepitant, 5-([(2R,3S)-2-((R)-1-[3,5-bis(trifluoromethyl)phenyl]ethoxy)-3-(4-fluorophenyl)morpholino]methyl)-1H-1,2,4-triazol-3(2H)-one] gave a concentration at 7 days (left superior lobe, po, 10 mg/kg/day, Lung concentration of aprepitant LSPI (left superior lobe), Group 1, oral 10 mg/kg per day, individual cases) of 500 ng/g, a concentration at 7 days (left superior lobe, po, 10 mg/kg/day, Lung concentration of aprepitant LSPI, Average ± SD of cases, Group 1, oral 10 mg/kg per day) of 600 ng/g and a concentration at 7 days (left superior lobe, po, 40 mg/kg/day, Lung concentration of aprepitant LSPI (left superior lobe), Group 2, oral 40 mg/kg per day, individual cases) of 5300 ng/g. The concentration at 7 days (left superior lobe, po, 40 mg/kg/day, Lung concentration of aprepitant LSPI, Average ± SD of cases, Group 2, oral 40 mg/kg per day) was 4300 ng/g, the concentration at 7 days (left superior lobe, po, 80 mg/kg/day, Lung concentration of aprepitant LSPI (left superior lobe), Group 3, oral 80 mg/kg per day, individual cases) was 3900 ng/g and the concentration at 7 days (left superior lobe, po, 80 mg/kg/day, Lung concentration of aprepitant LSPI, Average ± SD of cases, Group 3, oral 80 mg/kg per day) was 4700 ng/g. The concentration at 7 days (right inferior lobe, inhaled, 0.4 mg/kg/day, Lung concentration of aprepitant LIPD (right inferior lobe), Group 8, inhalation (aerosol, olive oil) 0.4 mg/kg per day, individual cases) was 9900 ng/g, the concentration at 7 days (right inferior lobe, inhaled, 0.4 mg/kg/day, Lung concentration of aprepitant LIPD, Average ± SD of cases, Group 8, inhalation (aerosol, olive oil) 0.4 mg/kg per day) was 10100 ng/g and the concentration at 7 days (right inferior lobe, po, 10 mg/kg/day, Lung concentration of aprepitant LIPD (right inferior lobe), Group 1, oral 10 mg/kg per day, individual cases) was 600 ng/g. It also gave a concentration at 7 days (right inferior lobe, po, 10 mg/kg/day, Lung concentration of aprepitant LIPD, Average ± SD of cases, Group 1, oral 10 mg/kg per day) of 800 ng/g, a concentration at 7 days (right inferior lobe, po, 40 mg/kg/day, Lung concentration of aprepitant LIPD (right inferior lobe), Group 2, oral 40 mg/kg per day, individual cases) of 3300 ng/g and a concentration at 7 days (right inferior lobe, po, 40 mg/kg/day, Lung concentration of aprepitant LIPD, Average ± SD of cases, Group 2, oral 40 mg/kg per day) of 3500 ng/g. The concentration at 7 days (right inferior lobe, po, 80 mg/kg/day, Lung concentration of aprepitant LIPD (right inferior lobe), Group 3, oral 80 mg/kg per day, individual cases) was 5100 ng/g, the concentration at 7 days (right inferior lobe, po, 80 mg/kg/day, Lung concentration of aprepitant LIPD, Average ± SD of cases, Group 3, oral 80 mg/kg per day) was 5500 ng/g and the concentration at 7 days (right middle lobe, inhaled, 0.4 mg/kg/day, Lung concentration of aprepitant LMPD (right middle lobe), Group 8, inhalation (aerosol, olive oil) 0.4 mg/kg per day, individual cases) was 10000 ng/g. For the same compound, the concentration at 7 days (right middle lobe, inhaled, 0.4 mg/kg/day, Lung concentration of aprepitant LMPD, Average ± SD of cases, Group 8, inhalation (aerosol, olive oil) 0.4 mg/kg per day) was 10000 ng/g, the concentration at 7 days (right middle lobe, po, 10 mg/kg/day, Lung concentration of aprepitant LMPD (right middle lobe), Group 1, oral 10 mg/kg per day, individual cases) was 1100 ng/g and the concentration at 7 days (right middle lobe, po, 10 mg/kg/day, Lung concentration of aprepitant LMPD, Average ± SD of cases, Group 1, oral 10 mg/kg per day) was 1300 ng/g. It also gave a concentration at 7 days (right middle lobe, po, 40 mg/kg/day, Lung concentration of aprepitant LMPD (right middle lobe), Group 2, oral 40 mg/kg per day, individual cases) of 4200 ng/g, a concentration at 7 days (right middle lobe, po, 40 mg/kg/day, Lung concentration of aprepitant LMPD, Average ± SD of cases, Group 2, oral 40 mg/kg per day) of 4000 ng/g and a concentration at 7 days (right middle lobe, po, 80 mg/kg/day, Lung concentration of aprepitant LMPD (right middle lobe), Group 3, oral 80 mg/kg per day, individual cases) of 4800 ng/g. It also gave a concentration at 7 days (right middle lobe, po, 80 mg/kg/day, Lung concentration of aprepitant LMPD, Average ± SD of cases, Group 3, oral 80 mg/kg per day) of 5200 ng/g, a concentration at 7 days (right middle lobe, po, 100 mg/kg/day, Lung concentration of aprepitant LMPD (right middle lobe), Group 4, oral 100 mg/kg per day, individual cases) of 5800 ng/g and a concentration at 7 days (right superior lobe, inhaled, 0.4 mg/kg/day, Lung concentration of aprepitant LSPD (right superior lobe), Group 8, inhalation (aerosol, olive oil) 0.4 mg/kg per day, individual cases) of 10100 ng/g. It also gave a concentration at 7 days (right superior lobe, inhaled, 0.4 mg/kg/day, Lung concentration of aprepitant LSPD, Average ± SD of cases, Group 8, inhalation (aerosol, olive oil) 0.4 mg/kg per day) of 9900 ng/g, a concentration at 7 days (right superior lobe, po, 10 mg/kg/day, Lung concentration of aprepitant LSPD, Average ± SD of cases, Group 1, oral 10 mg/kg per day) of 900 ng/g and a concentration at 7 days (right superior lobe, po, 40 mg/kg/day, Lung concentration of aprepitant LSPD (right superior lobe), Group 2, oral 40 mg/kg per day, individual cases) of 3200 ng/g. It also gave a concentration at 7 days (right superior lobe, po, 40 mg/kg/day, Lung concentration of aprepitant LSPD, Average ± SD of cases, Group 2, oral 40 mg/kg per day) of 3500 ng/g, a concentration at 7 days (right superior lobe, po, 80 mg/kg/day, Lung concentration of aprepitant LSPD (right superior lobe), Group 3, oral 80 mg/kg per day, individual cases) of 4900 ng/g and a concentration at 7 days (right superior lobe, po, 80 mg/kg/day, Lung concentration of aprepitant LSPD, Average ± SD of cases, Group 3, oral 80 mg/kg per day) of 4100 ng/g. The concentration at 7 days (right superior lobe, po, 100 mg/kg/day, Lung concentration of aprepitant LSPD (right superior lobe), Group 4, oral 100 mg/kg per day, individual cases) was 5100 ng/g and the “relationship between dose and concentration in the lungs” value (inhalation, 0.05 to 0.4 mg/kg per day) was “proportional to the dose administered by inhalation”.

— US20170290774A1, “NEUROKININ-1 RECEPTOR ANTAGONIST COMPOSITION FOR TREATMENT OF DISEASES AND CONDITIONS OF THE RESPIRATORY TRACT” (PLUS VITECH, S.L., priority 2014, published 2017)
